# Measurements taken from patent US9782360B2, “Fluorinated CBD compounds, compositions and uses thereof” (YISSUM RESEARCH DEVELOPMENT COMPANY OF THE HEBREW …, priority 2013, dated 2017).
# Several values for one entry are separate records, joined by “and”; a condition that tells them apart may be missing. Equal entries are not always repeated.
# Experiments:
# [1] = system: rats submitted to the elevated plus maze; assay: Elevated plus-maze (EPM), intra-dlPAG microinjection in rats; assay type: in vivo, Wistar rats
# Experimental: (§1) Male Wistar rats (220-250 g) and Swiss mice (25-30 g) originated from the Central Animal Farm of the School of Medicine of Ribeirão Preto (FMRP-USP) were maintained in groups of five animals per box (41×33×17 cm) in a temperature controlled room (24±2° C.) with a 12×12 h light-dark cycle. They received water and food ad libitum throughout the study period.
# (§2) HU-474 (1, 3 and 10 mg/kg) was administered intraperitoneally (IP) in mice at 10 mL/kg volume and HU-475 (1, 3 and 10 nmol) was injected intra-dlPAG in rats. Both drugs were dissolved in 2% Tween 80 in sterile saline.
# Rats were submitted to a stereotaxic surgery to unilaterally implant cannulae (9.0 mm, 0.6 mm OD) into the dlPAG (coordinates: lateral: −1.9 mm; depth: −4.3 mm; angle: 16° from lambda; Paxinos and Watson, 2005), fixed to the skull with acrylic cement (Campos & Guimarães, 2008). The surgeries were performed under anesthesia with tribromoethanol 2.5% (10.0 mL/kg, IP) and immediately after the animals received Veterinary Pentabiotic (0.2 mL, intramuscular) and analgesic (Banamine, 1.0 mL/kg, subcutaneous) to prevent infections and decrease post-surgical pain. After surgery, animals underwent a recovery period of 5-7 days before the behavioral tests.
# Animals received unilateral microinjections of vehicle or HU-475 into the dlPAG before being submitted to the behavioral tests. To this aim, microneedles (10.0 mm, 0.3 mm OD), connected to a microsyringe (Hamilton, USA, […]) through a segment of polyethylene (P10) were inserted into the guide cannulae. Solutions were injected with the help of an infusion pump (KD Scientific, USA). A 0.2 μL solution volume was injected over 1 min. After the injections, the needles remained inserted in the cannulae for additional 30 seconds to prevent drug reflux (Campos & Guimarães, 2008).
# The wood EPM used to perform the experiments was located in a sound attenuated and temperature controlled room (23° C.), with one incandescent light (40 W) placed 1.3 m away from the maze. The apparatus consists of two opposing open arms (50×10 cm) without side walls, perpendicular to two enclosed arms (50×10×40 cm), with a central platform common to all arms (10×10 cm). The apparatus is elevated 50 cm above the ground and has an acrylic edge (1 cm) in the open arms to prevent animal falls. In this model, rodents naturally avoid the open arms, exploring more extensively the enclosed arms. […] The test lasted for 5 min and was recorded. The animal behavior was analyzed with the help of the Anymaze Software (version 4.5, Stoelting). […]
# (§3) Results from HU-475 and HU-474 tests in the elevated plus maze were analyzed by Kruskal-Wallis followed by Mann-Whitney tests. Data from animals tested in the FST were analyzed by one-way ANOVA followed by Duncan test.
# C57BL/6J mice = assay: Pre-pulse inhibition (PPI) test, impairment induced by MK-801; assay type: in vivo
# Experimental: The experiments were performed using male C57BL/6J mice weighting 25-30 g. The animals were maintained throughout the experimental period under standard laboratory conditions with free access to water and food will be used.
# HU-474 (3 and 10 mg/kg) was dissolved in 2% Tween 80 in sterile saline (vehicle). MK-801 (a NMDA antagonist, 0.5 mg/kg, Sigma, USA) was dissolved in saline. Drugs were administered intraperitoneally (ip) at 10 mL/kg volume.
# The animals (n=9-11/group) received i.p. administration of vehicle or HU-474 (3 and 10 mg/kg) followed, 30 minutes later, by saline or MK-801 (0.5 mg/kg), resulting in the following experimental groups: vehicle+saline, HU 10+saline, vehicle+MK-801, HU 3+MK-801, HU 10+MK-801. The animals were submitted to PPI test 20 minutes after the last drug injection.
# The PPI was carried out in three consecutive steps. The first consisted of an acclimation period during which no stimulus was presented. In the second step, called habituation, only the stimulus that triggers the startle (pulse) was presented. The step that assessed the inhibition of startle response pulse consisted of 64 random presentations of the different stimuli: (i) pulse (white noise) 105 dB at 20 ms, (II) pre-pulse (pure tone frequency of 7 kHz) 80, 85 and 90 dB at 10 ms, (III) followed by pre-pulse 100 ms interval between them and (IV) zero (no stimulus). During this session the stimuli are presented at regular intervals of 30 s, 8 presentations of each stimulus. The percentage of the PPI was expressed as the percent inhibition of startle amplitude in response to multiple presentations of the pulse preceded by pre-pulse (PP), depending on the amplitude of the response only to the pulse (P), which was obtained in the following formula: % PPI=100−((PP/P)×100). […]
# The percentage of PPI was analyzed by repeated measures MANOVA with the treatment as the independent factor and the prepulse intensity (80, 85 and 90 dB) as repeated measure.
# [2] = system: mice tested in the elevated plus maze; assay: Elevated plus-maze (EPM) in mice, systemic (IP) administration; assay type: in vivo, Swiss mice
# Experimental: as §1, §2
# The wood EPM used to perform the experiments was located in a sound attenuated and temperature controlled room (23° C.), with one incandescent light (40 W) placed 1.3 m away from the maze. The apparatus consists of two opposing open arms (50×10 cm) without side walls, perpendicular to two enclosed arms (50×10×40 cm), with a central platform common to all arms (10×10 cm). The apparatus is elevated 50 cm above the ground and has an acrylic edge (1 cm) in the open arms to prevent animal falls. In this model, rodents naturally avoid the open arms, exploring more extensively the enclosed arms. Anxiolytic drugs increase the exploration in open arms without affecting the number of enclosed arms entries, which is usually used to assess general exploratory activity (File, 1992). Ten minutes after the last injection the animal was placed on the central platform of the maze with the head facing one of the enclosed arms. The test lasted for 5 min and was recorded. The animal behavior was analyzed with the help of the Anymaze Software (version 4.5, Stoelting). This software indicates the location of the animal in the EPM and automatically calculates the percentage of entries (Peo) and time spent in the open arms (Pto) and the number of entries in the enclosed arms (EA). Animals were only considered to enter an open or enclosed arm when 90% of their bodies were inside the region. All experiments were performed in the morning period (8 to 12 a.m.).
# Similar to 5.1 except that the each arm measured 30×5 cm.
# as §3
# mice tested in the FST [3] = assay: Forced swimming test (FST) in mice; assay type: in vivo, Swiss mice; conditions: for immobility time in the FST: IP
# Experimental: as §1, §2
# Animals were individually submitted for 6 min of forced swimming in glass cylinders (height 25 cm, diameter 17 cm) containing 10 cm of water. The mice were videotaped and the immobility time (characterized by slow movements necessary to avoid drowning) was measured during the last 4-min period. The water was changed after each trial to maintain the temperature at 23-25° C. and to prevent the influence of alarm substances (Zanelati et al., 2010).
# as §3
# [4] = system: rats submitted to the elevated plus maze; conditions: intra-dlPAG, same paradigm; doses tested: 15, 30 and 60 nmol; cited from earlier work
# [5] = Campos & Guimarães, 2008; cited from earlier work
# Swiss mice [6] = conditions: Moreira and Guimarães, 2005; cited from earlier work
# Swiss mice [7] = conditions: cited from earlier work
# mice tested in the FST [8] = conditions: i.p., Swiss mice; doses tested 3, 10, 30 and 100 mg/kg; cited from earlier work
# Swiss mice [9] = conditions: single administration i.p., MK801 0.3-1 mg/kg i.p., also tested 1 and 15 mg/kg; cited from earlier work
smiles,measurement,setting,value
"C=C(CF)[C@@H]1CCC(C)=CC1c1c(OC(C)=O)cc(CCCCC)cc1OC(C)=O (some centres unmarked) [HU-475, 10-fluoro-cannabidiol diacetate]",number of enclosed arm entries,"[1]; HU-475 1, 3 and 10 nmol intra-dlPAG",No effect
same,percentage of time spent into the open arms,"[1]; HU-475 1, 3 and 10 nmol intra-dlPAG, X^2=8.5, DF=4, p=0.075, FIG. 2",tended to do the same
same,percentage of entries onto the open arms,"[1]; HU-475 1, 3 and 10 nmol intra-dlPAG, X^2=9.66, DF=4, p<0.05, FIG. 1",increased
same,"potency relative to CBD (EPM, intra-dlPAG)","[1]; intra-dlPAG, compared with CBD effective dose",10 times
"C[C@]12N[C@H](Cc3ccccc31)c1ccccc12 [MK-801, reference compound]",effect on PPI,"C57BL/6J mice; MK-801 0.5 mg/kg i.p., all prepulse intensities tested, P<0.05, Duncan post-test",significant PPI disruption
"C=C(C)[C@@H]1CCC(C)=CC1c1c(O)cc(CCCCC)c(F)c1O (some centres unmarked) [HU-474, 4′-fluoro-cannabidiol]",number of enclosed arms entries,"[2]; HU-474 1, 3 and 10 mg/kg IP",No effect
same,percentage of entries onto the open arms,"[2]; HU-474 1, 3 and 10 mg/kg IP, FIG. 4",No effect
same,percentage of time spent in the open arms,"[2]; HU-474 1, 3 and 10 mg/kg IP, X^2=8.13, DF=3, p<0.05, FIG. 3",increased
same,"effective dose (anxiolytic-like effects, EPM)","[2]; systemic administration, bell-shaped dose-response curve",3 mg/kg
same,immobility time in the FST,"mice tested in the FST [3]; dose of 3 m/kg, p=0.019, FIG. 5",decreased
same,immobility time in the FST,mice tested in the FST [3]; doses of 1 and 10 mg/kg,ineffective
same,potency relative to CBD (forced swimming test),"mice tested in the FST [3]; i.p., compared with CBD effective dose",10 times
same,MK-801 PPI disruption (effect of treatment),"C57BL/6J mice; HU-474 10 mg/kg i.p., MK-801 0.5 mg/kg, all prepulse intensities (80, 85, 90 dB), P<0.05, FIG. 6",attenuated
same,effective dose (attenuation of MK-801 PPI disruption),"C57BL/6J mice; i.p., C57BL/6J mice",10 mg/kg
"C=C(C)[C@@H]1CCC(C)=C[C@H]1c1c(O)cc(CCCCC)cc1O [CBD, cannabidiol]","effective dose (anxiolytic-like effect, EPM)",[4],30 nmol
same,dose producing an anxiolytic-like effect in the Vogel punished licking test,[5],30 nmol
same,dose able to attenuate the hyper-locomotion induced by MK801,Swiss mice [6],30 mg/kg
same,effective doses (hyperlocomotion induced by d-amphetamine),Swiss mice [7],30 mg/kg and 60 mg/kg
same,dose producing an antidepressant-like effect in the forced swimming test,mice tested in the FST [8],30 mg/kg
same,effective dose (attenuation of PPI deficits caused by MK801),Swiss mice [9],5 mg/kg
